Reference: patent US5624924A, “Quinobenzothiazine antineoplastic agents” (priority 1994, dated 1997)
Values after ≈ are worked out from the molar mass of the structure shown. Structures can show the parent of a compound that is named as a salt. Where two headings read alike, the source gives them in different places.

Columns and labels:
[1] = test system: P388-D1 mouse leukemia cell line; experiment: In vitro cytotoxicity (MTT), P388-D1; format: cell-based; conditions: Mus musculus, P388D1, 72 h, read-out: In Vitro Cytotoxicity (IC50), P388-D1
Experimental: (§1) Metabolic activity was measured by the cells' ability to reduce the tetrazolium dye, 3-(4,5-dimethylthiazol-2-yl)-2,5-diphenyltetrazolium bromide (MTT), to a quantifiable colored formasan derivative. Surviving cells reduce the MTT dye. The inhibitory concentrations of killing 50% of the cells (IC50 s) were calculated. Testing was in accord with the following protocol:
(§2) Test compounds and a reference antineoplastic agent, ADRIAMYCIN (doxorubicin hydrochloride), were dissolved in dimethyl sulfoxide (DMSO) and diluted, first with Earle's Balanced Salt Solution, followed by culture medium, to twice the highest concentration of the compound to be tested. From this concentrated stock, two-fold serial dilutions were prepared in 96-well microtiter trays, each well containing twice the desired final concentration of the compound. Each concentration was tested in triplicate and compared to triplicate drug-free controls.
(§3) The cells were grown in the same medium used for diluting the compounds. Adherent cells were harvested by trypsinization according to the following procedure:
(§4) After harvesting by trypsinization, viable cell counts were determined and cell density was adjusted to 25,000 cells/mL. Inoculum (0.1 mL) was then added to each well for a final concentration of 2,500 cells per well. Addition of the inoculum was used to dilute the test compounds to the desired concentration.
(§5) Microtiter trays were incubated for three days at 36° C. in a humidified atmosphere containing 5% carbon dioxide.
(§6) After three days, 20 microliters of 5 mg/mL MTT in phosphate-buffered solution were added to each well of the microtiter trays. The microtiter trays were then returned to the incubator for two to four hours to allow the surviving cells to reduce the dye. After this incubation, both the medium and the unreduced dye were removed by aspiration. DMSO was added to each well to dissolve the water-insoluble, colored end product of the dye reduction for spectrophotometric measurement at 570 nm.
(§7) The results obtained which clearly show the cytotoxicity of the compounds of Examples 5, 6, 7 and 8 against […] tumor cell lines A549, HCT-8, HT-29 and P388-D1, are illustrated in Table 1. (A549 is a human lung cancer cell line; HCT-8 is a human colon cancer cell line; HT-29 is a human colon cancer cell line; and P388-D1 is a mouse leukemia cell line.)

[2] = test system: HT-29 human colon cancer cell line; experiment: In vitro cytotoxicity (MTT), HT-29; format: cell-based; conditions: HT-29, 72 h
Experimental: as §1, §2, §3, §4, §5, §6, §7

[3] = test system: A549 human lung cancer cell line; experiment: In vitro cytotoxicity (MTT), A549; format: cell-based; conditions: A549, 72 h
Experimental: as §1, §2, §3, §4, §5, §6, §7

[4] = test system: P388 mouse leukemia cell line; experiment: In vitro cytotoxicity (MTT), P388; format: cell-based; conditions: P388, 72 h, read-out: In Vitro Cytotoxicity (IC50)
Experimental: as §1, §2, §3, §4, §5, §6
(§8) Compounds from Examples 4, 6, 8, 9 and 10 were additionally tested against human and murine tumor cell lines A549, HT-29, P388-D1, P388, P388-ADR(0.0), P388-ADR(0.1) and B16F109. (P388 is a mouse leukemia cell line similar to P388-D1, but animal-passaged; P388-ADR (0.0) is an ADRIAMYCIN-resistant variant of P388, the inoculum of which is grown in drug-free medium; P388-ADR (0.1) is an ADRIAMYCIN-resistant variant of P388, the inoculum of which is grown in medium with 0.1 mcg.ml ADRIAMYCIN; and B16F10 is a mouse melanoma.) The results are presented in Table 2; as shown in the table, the compounds of the present invention are effective cytotoxic agents even against the ADRIAMYCIN-resistant cell line P388-ADR.

B16F10 mouse melanoma = experiment: In vitro cytotoxicity (MTT), B16F10; format: cell-based; conditions: B16-F10, 72 h, read-out: In Vitro Cytotoxicity (IC50)
Experimental: as §1, §2, §3, §4, §5, §6, §8

[5] = test system: P388-ADR(0.0), ADRIAMYCIN-resistant variant of P388; experiment: In vitro cytotoxicity (MTT), P388-ADR(0.0); format: cell-based; conditions: Mus musculus, 72 h, inoculum grown in drug-free medium, Table 2
Experimental: as §1, §2, §3, §4, §5, §6, §8

[6] = test system: C-26 colon adenocarcinoma; experiment: In vivo activity against C-26 implanted subcutaneously (Example 44); design: species or system mouse; conditions: 10 mg/kg, compound 37 days 1-9, BCNU days 1, 5, 9
Experimental: (§9) The title compound of Example 37 above was tested against solid tumors in mice, using 1,3-bis(2-chloroethyl)-1-nitrosourea (BCNU) as a positive control. The tumor lines were M5076, an ovarian sarcoma implanted intraperitoneally (IP), and C-26, a colon adenocarcinoma, implanted intraperitoneally (IP) and subcutaneously (SC) in separate trials.
(§10) All drugs were administered in 5% aqueous dextrose or other suitable diluent. Drug efficacy was determined by prolonged survival times of the test animals or reduced tumor mass as compared to negative controls. Test groups consisted of 10 mice. Control groups consisted of 20 mice. Animals were of one sex and of similar weight. Prior to testing, the tumor cell lines were propagated in BALB/cj mice. Tumor implants were aliquots of a donor pool brei,
For the C-26 SC trial, the tumor was implanted SC into mice on day 0. The test compound was administered four times a day IP from day 1 to day 9 for a total of nine days. BCNU was administered four times a day on days 1, 5, and 9. The mean tumor masses were determined on day 11 and day 21, and the experiment terminated on day 60. The mean tumor mass (MTM) inhibition value of % MTM(T/C) was calculated, which value represents the ratio of treated to control group MTM's expressed as a percentage.

[7] = test system: C-26 colon adenocarcinoma; experiment: In vivo activity against C-26 implanted intraperitoneally (Example 44); design: species or system mouse
Experimental: as §9, §10
In the IP trials, the mean survival time (MST) of the groups of mice was determined, not counting animals surviving at the conclusion of the trial, and the mean lifespan comparison value of % MST(T/C) calculated, which value represents the ratio of treated to control group MST's expressed as a percentage.
For C-26 colon adenocarcinoma, the tumor was implanted into CD2 F1 mice, IP and SC in separate trials. For the C-26 IP trial, the tumor was implanted IP on day 0. The test compound were administered four times a day IP from day 1 to day 9 for a total of nine days. BCNU was administered four times a day on days 1, 5 and 9.

[8] = read-out: In Vitro Cytotoxicity (IC50), HT-29, Table 1, three day MTT assay
[9] = read-out: In Vitro Cytotoxicity (IC50), A549, Table 1, three day MTT assay
[10] = read-out: In Vitro Cytotoxicity (IC50), HT-29, Table 2, ADR: average of two tests
[11] = read-out: In Vitro Cytotoxicity (IC50), A549, Table 2, ADR: average of two tests
[12] = 10 mg/kg, compound 37 days 1-9, BCNU days 1, 5, 9

SMILES: CCOC(=O)c1cn2c3c(c(N4CCC(NC(C)=O)C4)c(F)cc3c1=O)Oc1cc([N+](=O)[O-])ccc1-2 (stereo not drawn) [Example 5, Ethyl 1-(3-acetamidopyrrolidin1-yl)-2-fluoro-9-nitro-4-oxo-4H-quino[2,3,4-i,j][1,4]benzoxazine-5-carboxylate]
- IC50 ([1]; Table 1, three day MTT assay): 0.011 µg/mL (≈ 0.0222 µM)
- IC50 [2, 8]: 0.078 µg/mL (≈ 0.157 µM)
- IC50 [3, 9]: 0.13 µg/mL (≈ 0.262 µM)

SMILES: CC(C)(C)c1ccc2c(c1)-n1cc(C(=O)O)c(=O)c3cc(F)c(N4CCC(N)C4)c(c31)O2 (stereo not drawn) [Example 21, 1-(3-aminopyrrolidin-1-yl)-8-t-butyl-2-flouro-4-oxo-4H-quino[2,3,4-i,j][1,4]benzoxazine-5-carboxylic acid hydrochloride]
- IC50 [2, 10]: 0.078 µg/mL
- IC50 [4]: 0.063 µg/mL
- IC50 [3, 11]: 0.247 µg/mL
- IC50 (B16F10 mouse melanoma): 0.045 µg/mL

SMILES: CCC[C@H](N)C(=O)NC1CCN(c2c(F)cc3c(=O)c(C(=O)O)cn4c3c2Oc2cc(C)ccc2-4)C1 (stereo partly drawn) [Example 10, 1-(3-norvalylaminopyrrolidin-1-yl)-2-fluoro-9-methyl-4-oxo-4H-quino[2,3,4-i,j][1,4]benzoxazine-5-carboxylic acid hydrochloride]
- IC50 [2, 10]: 0.0875 µg/mL
- IC50 [4]: 0.108 µg/mL
- IC50 [5]: 0.447 µg/mL
- IC50 [3, 11]: 0.187 µg/mL
- IC50 (B16F10 mouse melanoma): 0.0573 µg/mL

SMILES: NC1CCN(c2c(F)cc3c(=O)c(C(=O)O)cn4c3c2Oc2cc3c(cc2-4)OCO3)C1 (stereo not drawn) [Example 32, 1(3-aminopyrrolidin-1-yl)-2-fluoro-8,9-methylenedioxy-4-oxo-4H-quino[2,3,4-i,j][1,4]benzoxazine-5-carboxylic acid hydrochloride]
- IC50 [2, 10]: 0.042 µg/mL
- IC50 [4]: 0.022 µg/mL
- IC50 [3, 11]: 0.134 µg/mL
- IC50 (B16F10 mouse melanoma): 0.018 µg/mL

SMILES: O=NN(CCCl)C(=O)NCCCl [BCNU, 1,3-bis(2-chloroethyl)-1-nitrosourea, reference compound]
- % MTM(T/C) ([6]; day 11): 1%
- MTM ([6]; day 11): 2 mg
- % MTM(T/C) ([6]; day 21): 7%
- MTM ([6]; day 21): 244 mg
- % MST(T/C) [7, 12]: 201%
- MST [7, 12]: 41.4
- test animals that survived the trial ([7]; BCNU 10 mg/kg (footnote b)): One of ten test animals survived the trial

SMILES: N[C@@H]1CCN(c2c(F)cc3c(=O)c(C(=O)O)cn4c3c2Oc2ccccc2-4)C1 [Example 17, 1-((3R)-3-aminopyrroidin-1-yl)-2-fluoro-4-oxo-4H-quino[2,3,4-i,j][1,4]benzoxazine-5-carboxylic acid hydrochloride]
- IC50 [2, 10]: 0.068 µg/mL
- IC50 [4]: 0.021 µg/mL
- IC50 [5]: 0.1 µg/mL
- IC50 [3, 11]: 0.042 µg/mL
- IC50 (B16F10 mouse melanoma): 0.011 µg/mL

SMILES: CCOC(=O)c1cn2c3c(c(N4CCC(N)C4)c(F)cc3c1=O)Oc1cc3c(cc1-2)OCO3 (stereo not drawn) [Example 35, Ethyl 1-(3-aminopyrrolidin-1-yl)-2-fluoro-8,9-methylenedioxy-4-oxo-4H-quino[2,3,4-i,j][1,4]benzoxazine-5-carboxylate]
- IC50 [2, 10]: 0.093 µg/mL (≈ 0.205 µM)
- IC50 [4]: 0.034 µg/mL (≈ 0.075 µM)
- IC50 [3, 11]: 0.26 µg/mL (≈ 0.573 µM)
- IC50 (B16F10 mouse melanoma): 0.077 µg/mL (≈ 0.17 µM)

SMILES: CCOC(=O)c1cn2c3c(c(N4CCC(NC(C)=O)C4)c(F)cc3c1=O)Oc1cc(C)ccc1-2 (stereo not drawn) [6, step 2, Ethyl 1-(3-acetamidopyrrolidin-1-yl)-2-fluoro-9-methyl-4-oxo-4H-quino[2,3,4-i,j][1,4]benzoxazine-5-carboxylate]
- IC50 ([1]; Table 1, three day MTT assay): 0.65 µg/mL (≈ 1.4 µM)
- IC50 [2, 8]: 0.64 µg/mL (≈ 1.37 µM)
- IC50 [3, 9]: 1.01 µg/mL (≈ 2.17 µM)

SMILES: Cc1ccc2c(c1)-n1cc(C(=O)O)c(=O)c3cc(F)c(N4CCC(N)C4)c(c31)O2 (stereo not drawn) [Example 4, 1-(3-aminopyrrolidin-1-yl)-2-fluoro-8-methyl-4-oxo-4H-quino[2,3,4-i,j][1,4]benzoxazine-5-carboxylic acid hydrochloride]
- IC50 [2, 10]: 0.0431 µg/mL
- IC50 [4]: 0.0384 µg/mL
- IC50 [5]: 0.24 µg/mL
- IC50 [3, 11]: 0.122 µg/mL
- IC50 (B16F10 mouse melanoma): 0.0221 µg/mL

SMILES: Cc1ccc2c(c1)Oc1c(N3CC[C@@H](N)C3)c(F)cc3c(=O)c(C(=O)O)cn-2c13 [Example 19, 1-((3R)-3-aminopyrrolidin-1-yl)-2-fluoro-9-methyl-4-oxo-4H-quino[2,3,4-i,j][1,4]benzoxazine-5-carboxylic acid hydrochloride]
- IC50 [2, 10]: 0.052 µg/mL
- IC50 [4]: 0.047 µg/mL
- IC50 [3, 11]: 0.24 µg/mL
- IC50 (B16F10 mouse melanoma): 0.049 µg/mL

SMILES: NC1CCN(c2c(F)cc3c(=O)c(C(=O)N4CCOCC4)cn4c3c2Oc2ccccc2-4)C1 (stereo not drawn) [Example 29, 1-(3-aminopyrrolidin-1-yl)-2-fluoro-5-(1-morpholinocarbonyl)-4-oxo-4H-quino[2,3,4-i,j][1,4]benzoxazine trifluoracetate salt]
- IC50 [2, 10]: 1.4 µg/mL
- IC50 [4]: 0.54 µg/mL
- IC50 [5]: 49.4 µg/mL
- IC50 [3, 11]: 6 µg/mL
- IC50 (B16F10 mouse melanoma): 0.56 µg/mL

SMILES: Cc1cc(C)c2c(c1)-n1cc(C(=O)O)c(=O)c3cc(F)c(N4CCC(N)C4)c(c31)O2 (stereo not drawn) [Example 15, 1-(3-aminopyrrolidin-1-yl)-8,10-dimethyl-2-fluoro-4-oxo-4H-quino[2,3,4-i,j][1,4]benzoxazine-5-carboxylic acid hydrochloride]
- IC50 [2, 10]: 0.015 µg/mL
- IC50 [4]: 0.012 µg/mL
- IC50 [3, 11]: 0.034 µg/mL
- IC50 (B16F10 mouse melanoma): 0.015 µg/mL

SMILES: NC1CCN(c2c(F)cc3c(=O)c(C(=O)Nc4ccc(F)cc4F)cn4c3c2Oc2ccccc2-4)C1 (stereo not drawn) [Example 30, 1-(3-aminopyrrolidin-1-yl)-2-fluoro-4-oxo-4H-quino[2,3,4-i,j][1,4]benzoxazine-5-(N-2,4-difluorphenyl)carboxamide hydrochloride]
- IC50 [2, 10]: 1.6 µg/mL
- IC50 [4]: 0.6 µg/mL
- IC50 [3, 11]: 4.1 µg/mL
- IC50 (B16F10 mouse melanoma): 1.3 µg/mL

SMILES: NC1CCN(c2c(F)cc3c(=O)c(C(=O)O)cn4c3c2Oc2cc(F)ccc2-4)C1 (stereo not drawn) [Example 7, 1-(3-aminopyrrolidin-1-yl)-2,9-difluoro-4-oxo-4H-quino[2,3,4-i,j][1,4]benzoxazine-5-carboxylic acid hydrochloride]
- IC50 ([1]; Table 1, three day MTT assay): 0.11 µg/mL
- IC50 ([1]; Table 2, ADR value marked *: single test): 0.11 µg/mL
- IC50 [2, 8]: 0.21 µg/mL
- IC50 [2, 10]: 0.2 µg/mL
- IC50 [3, 9]: 4.1 µg/mL
- IC50 [3, 11]: 4.1 µg/mL
